Experimental data from US20090054376A1, “BENZOFURAN DERIVATIVES WITH THERAPEUTIC ACTIVITIES” (Pharmos Corporation, priority 2005, published 2009).

How the values were obtained:
Human CB1 Receptor = molecular target: T1, Human CB1 Receptor (Homo sapiens, UniProt P21554); test: [35S]GTPγS-binding assay, hCB1; type: biochemical; details: NB = no binding
T1 construct: expressed in transfected cells; host or cells: HEK-293 cells (membranes)

[1] = system: visceral pain writhing responses; test: Visceral pain, acetic acid induced writhing responses; type: in vivo, Male ICR mice; details: for inhibition in vivo at 2 mg/kg: Mus musculus, iv, read-out: Percent Inhibition of Visceral Pain Writhing Responses; for inhibition in vivo at 2 mg/kg / Percent Inhibition of Visceral Pain Writhing Responses: single dose 2 mg/kg i.v., compared to untreated group
[2] = system: oxazolone induced DTH, ear thickness; test: Oxazolone induced delayed type hypersensitivity; type: in vivo, Male ICR mice; details: for decrease in ΔThickness, inhibition as compared to untreated animals: day one after challenge
Description: Male ICR mice (average body weight 20-25 g, Harlan, Israel) were anesthetized using a mixture of 35 mg/kg ketamine and 8 mg/kg xylazine. The abdomen of the sedated animals was shaved, and the animals were sensitized by topical application of 2% oxazolone in acetone:sesame oil (4:1 volume per volume), 100 μl to the shaved abdomen and 5 μl to each paw. Five days later, the sensitized mice were anesthetized again and their right ear was challenged with 10 μl of 1% oxazolone. Immediately before this challenge, vehicle (5 ml/kg) or test compounds were administered i.v. Each treatment group comprised at least 5 animals. The ear thickness was measured 24 and 48 hours following challenge using a micrometer. The difference in ear thickness (ΔThickness) between the challenged and non-challenged ear was calculated. The average ΔThickness and SEM were calculated on each day following challenge (baseline) for all treatment groups.

IL-1β = test: Cytokine secretion into blood circulation in LPS injected mice, IL-1β; type: in vivo, Balb/C female mice; details: 2 mg/kg i.v., LPS 3 mg/kg i.p., plasma 90 minutes after LPS
Description: Balb/C female mice (average body weight 20 g, Harlan, Israel) were injected i.v. at a volume dosage of 5 ml/kg with either vehicle or test compounds at a dose of 2 mg/kg. Each treatment group comprised at least 9 animals. Immediately after compound or control administration, the mice were injected i.p. with 3 mg/kg LPS (E. coli 055:B5, Calbiochem). Ninety minutes after LPS induction, blood samples were collected into heparanized test tubes. Plasma was separated by centrifugation (10,000 rpm for 5 minutes at RT) and stored at −20° C. until assayed. The level of the inflammatory mediator under study, IL-1β, IL-6, IL-10 or TNF-α, was assayed by ELISA techniques.
The technique used to quantify the amount of a given protein in a liquid sample, either tissue culture supernatant or body fluid, is based on Enzyme Linked ImmunoSorbent Assay (ELISA) methodology. Either commercially available or established in house, the assay is based on the capture of the protein of interest by specific antibodies bound to the bottom of an ELISA plate well. Unbound material is washed away, the captured protein is then exposed to a secondary antibody generally labeled with horseradish peroxidase (HRP) or alkaline phosphatase (ALP). Again the unbound material is washed away, and the samples are then incubated with the appropriate substrate yielding a colorimetric reaction. The reaction is stopped and reading is performed in a spectrophotometer at the appropriate wavelength. Samples are tested at least in duplicate and the appropriate standard curve, consisting of serial dilutions of the recombinant target protein, is incorporated on each plate. The concentration of the protein in the sample is calculated from the standard curve.
The results are expressed as percent inhibition of secretion, taking into account the maximal cytokine concentration in vehicle “treated” animals and the baseline level in naïve animals. […] Inhibition above 50% was considered highly significant.

T1 sequence (P21554 whole entry): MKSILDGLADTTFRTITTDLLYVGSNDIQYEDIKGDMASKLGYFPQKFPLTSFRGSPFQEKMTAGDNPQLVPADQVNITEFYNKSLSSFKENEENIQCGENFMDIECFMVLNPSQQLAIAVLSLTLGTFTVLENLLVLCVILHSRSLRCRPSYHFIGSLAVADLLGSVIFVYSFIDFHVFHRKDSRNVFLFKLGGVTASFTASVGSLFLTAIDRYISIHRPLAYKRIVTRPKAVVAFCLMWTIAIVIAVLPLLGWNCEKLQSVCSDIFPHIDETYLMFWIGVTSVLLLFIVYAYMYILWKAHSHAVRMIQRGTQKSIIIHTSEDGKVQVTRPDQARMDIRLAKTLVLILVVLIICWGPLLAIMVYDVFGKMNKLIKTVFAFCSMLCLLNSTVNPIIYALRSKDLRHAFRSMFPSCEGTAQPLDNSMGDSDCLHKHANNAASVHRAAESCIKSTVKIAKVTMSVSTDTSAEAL

CCCCCCC(C)(C)c1cc(O)c2c(c1)OC1C(O)CCCCC21 (stereo not drawn) [Compound C7S-2, 2-(1,1-dimethylheptyl)-5,6,7,8,9,9a-hexahydro-4bH-10-oxa-benzo[α]azulen-4,9-diol]
EC50 (Human CB1 Receptor): 359 nM | Emax (Human CB1 Receptor; upper plateau of curve): 50% | inhibition of writhing responses ([1]; 0.075 mg/kg i.v., compared to vehicle): 28% | inhibition of writhing responses ([1]; 0.1 mg/kg i.v.): 74% | inhibition of writhing responses ([1]; 0.25 mg/kg i.m.): 35% | inhibition of writhing responses ([1]; 0.5 mg/kg i.m.): 90% | inhibition of pain responses ([1]; 0.5 mg/kg i.v.): totally eradicated pain responses | inhibition of pain response ([1]; 1 mg/kg i.m.): totally abrogated the pain response | inhibition of writhing responses ([1]; 10 mg/kg p.o.): 58% | inhibition of writhing responses ([1]; 20 mg/kg p.o.): 83% | fold more potent than morphine ([1]; IC50 in visceral pain, i.v.): 12 fold | inhibition in vivo at 2 mg/kg [1]: > 90% | IC50 in visceral pain ([1]; i.m. administration, calculated): about 0.27 mg/kg | IC50 in visceral pain ([1]; i.v., estimated or calculated from dose range): 0.09 mg/kg | IC50 in visceral pain ([1]; p.o. administration, calculated): about 6.6 mg/kg | IC50 in visceral pain ([1]; subcutaneously, estimated): about 1 mg/kg | Difference in Ear Thickness, Baseline, Mean ([2]; 0.5 mg/kg IV): 3.66 ×10^−2 mm | Difference in Ear Thickness, Day 1, Mean ([2]; 0.5 mg/kg IV): 8.18 ×10^−2 mm | Difference in Ear Thickness, Day 2, Mean ([2]; 0.5 mg/kg IV): 5.90 ×10^−2 mm | decrease in ΔThickness, inhibition as compared to untreated animals ([2]; 0.5 mg/kg i.v.): 29%

CCCCC(C)(C)c1cc(O)c2c(c1)OC1CCCCC21 (centres unmarked) [Compound C6S-3, 3-(1,1-dimethylpentyl)-5a,6,7,8,9,9a-hexahydro-dibenzofuran-1-ol]
Inhibition of cytokine secretion into blood circulation, IL-1β (IL-1β): NO (NO indicates that the compound tested did not significantly affect the level of cytokine in plasma of LPS injected mice and that its activity is comparable to vehicle, within ±20% from this control) | Difference in Ear Thickness, Baseline, Mean ([2]; 2 mg/kg IV): 3.76 ×10^−2 mm | Difference in Ear Thickness, Day 1, Mean ([2]; 2 mg/kg IV): 8.64 ×10^−2 mm | Difference in Ear Thickness, Day 2, Mean ([2]; 2 mg/kg IV): 5.78 ×10^−2 mm | decrease in ΔThickness, inhibition as compared to untreated animals ([2]; 2 mg/kg i.v.): 25%

CCCCCCC(C)(C)c1cc(O)c2c(c1)OC1C=CCCC21 (centres unmarked) [Compound C6S-2, 3-(1,1-Dimethylheptyl)-5a,8,9,9a-tetrahydro-dibenzofuran-1-ol]
Inhibition of cytokine secretion into blood circulation, IL-1β (IL-1β): 56%

CCCCCCC(C)(C)c1cc(O)c2c(c1)OC1(C)CCCC21 (stereo not drawn) [Compound C5S-2, 6-(1,1-dimethylheptyl)-8a-methyl-2,3,3a,8a-tetrahydro-1H-8-oxa-cyclo-penta[α]inden-4-ol]
Inhibition of cytokine secretion into blood circulation, IL-1β (IL-1β): 53% | Percent Inhibition of Visceral Pain Writhing Responses [1]: 72%

CCCCCCC(C)(C)c1cc(O)c2c3c(oc2c1)C(=O)CCC3(C)C [Compound C6M-9, 7-(1,1-Dimethylheptyl)-9-hydroxy-1,1-dimethyl-2,3-dihydro-1H-dibenzofuran-4-one]
inhibition in vivo at 2 mg/kg [1]: 38%

CCCCC(C)(C)c1cc(O)c2c(c1)OC1(C)CCCC21 (stereo not drawn) [Compound C5S-1, 6-(1,1-dimethylpentyl)-8a-methyl-2,3,3a,8a-tetrahydro-1H-8-oxa-cyclopenta[α]inden-4-ol]
Inhibition of cytokine secretion into blood circulation, IL-1β (IL-1β): 41% | Percent Inhibition of Visceral Pain Writhing Responses [1]: 41%

CCCCC(C)(C)c1cc(O)c2c(c1)OC1C2CCC(C)(C)C1O (centres unmarked) [Compound C6S-7, 3-(1,1-dimethylpentyl)-7,7-dimethyl-5a,6,7,8,9,9a-hexahydro-dibenzofuran-1,6-diol]
inhibition in vivo at 2 mg/kg [1]: 40%
